The assay concerns the target Histone deacetylase 2 (Homo sapiens) (UniProt Q92769). Put plainly: Inhibition of human recombinant HDAC2.
Sequence of Histone deacetylase 2 (Homo sapiens) (Q92769 whole entry, looked up): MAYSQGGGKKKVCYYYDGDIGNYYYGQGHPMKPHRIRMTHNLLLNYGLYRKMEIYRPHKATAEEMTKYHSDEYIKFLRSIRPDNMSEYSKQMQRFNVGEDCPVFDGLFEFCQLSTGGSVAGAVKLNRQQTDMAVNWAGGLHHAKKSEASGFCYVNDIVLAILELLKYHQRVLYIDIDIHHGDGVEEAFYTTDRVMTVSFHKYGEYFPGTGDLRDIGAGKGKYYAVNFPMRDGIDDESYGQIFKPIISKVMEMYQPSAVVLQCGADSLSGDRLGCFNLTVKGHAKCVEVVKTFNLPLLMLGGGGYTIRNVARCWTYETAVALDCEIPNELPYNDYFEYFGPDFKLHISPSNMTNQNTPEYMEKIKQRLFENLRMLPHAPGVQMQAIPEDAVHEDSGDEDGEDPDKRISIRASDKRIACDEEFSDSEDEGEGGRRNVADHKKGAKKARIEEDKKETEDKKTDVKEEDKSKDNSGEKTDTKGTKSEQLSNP
Turning to `CCN1CCCC(n2c(-c3cccc(/C=C/C(=O)NO)c3)nc3ccccc32)C1` (racemic) [(+/-)-3-(3-(1-(1-ethylpiperidin-3-yl)-1H-benzo[d]imidazol-2-yl)phenyl)-N-hydroxyacrylamide], the IC50 – broadly, the point on the concentration scale where inhibition reaches its midpoint – was found to be 20 nM. The value for `CCN(CC)CCn1c(-c2cccc(/C=C/C(=O)NO)c2)nc2ccccc21` [3-(3-(1-(2-(diethylamino)ethyl)-1H-benzo[d]imidazol-2-yl)phenyl)-N-hydroxyacrylamide] was 31 nM; that for `CC(C)N(CCn1c(-c2cccc(/C=C/C(=O)NO)c2)nc2ccccc21)C(C)C` [3-(3-(1-(2-(diisopropylamino)ethyl)-1H-benzo[d]imidazol-2-yl)phenyl)-N-hydroxyacrylamide] was 40 nM; that for `CN(C)CCn1c(-c2cccc(/C=C/C(=O)NO)c2)nc2ccccc21` [3-(3-(1-(2-(dimethylamino)ethyl)-1H-benzo[d]imidazol-2-yl)phenyl)-N-hydroxyacrylamide] was 63 nM.

Take `O=C(/C=C/c1cccc(-c2nc3ccccc3n2Cc2ccccc2)c1)NO` [3-(3-(1-benzyl-1H-benzo[d]imidazol-2-yl)phenyl)-N-hydroxyacrylamide]: the IC50 stood at 50 nM.

With `O=C(/C=C/c1cccc(-c2nc3ccccc3[nH]2)c1)NO` [3-(3-(1H-benzo[d]imidazol-2-yl)phenyl)-N-hydroxyacrylamide], the IC50 was 100 nM. The value for `Cc1nc(C)n(CCc2ccccc2)c1-c1cccc(/C=C/C(=O)NO)c1` [3-(3-(2,4-dimethyl-1-phenethyl-1H-imidazol-5-yl)phenyl)-N-hydroxyacrylamide] was 79 nM; that for `Cc1nc(Cc2ccccc2)n(CCc2ccccc2)c1-c1cccc(/C=C/C(=O)NO)c1` [3-(3-(2-benzyl-4-methyl-1-phenethyl-1H-imidazol-5-yl)phenyl)-N-hydroxyacrylamide] was 40 nM.

As to `Cc1nc(-c2cccc(/C=C/C(=O)NO)c2)n(CCN2CCOCC2)c1C` [3-(3-(4,5-dimethyl-1-(2-morpholinoethyl)-1H-imidazol-2-yl)phenyl)-N-hydroxyacrylamide], the IC50 worked out at 31 nM.

Regarding `Cc1nc(-c2cccc(/C=C/C(=O)NO)c2)n(CCc2ccccc2)c1C` [3-(3-(4,5-dimethyl-1-phenethyl-1H-imidazol-2-yl)phenyl)-N-hydroxyacrylamide], the IC50 came to 7.9 nM. For `Cc1c(Cc2ccccc2)nc(-c2cccc(/C=C/C(=O)NO)c2)n1CCN1CCOCC1` [3-(3-(4-benzyl-5-methyl-1-(2-morpholinoethyl)-1H-imidazol-2-yl)phenyl)-N-hydroxyacrylamide], the IC50 worked out at 12 nM. Consider `Cc1c(Cc2ccccc2)nc(-c2cccc(/C=C/C(=O)NO)c2)n1CCc1ccccc1` [3-(3-(4-benzyl-5-methyl-1-phenethyl-1H-imidazol-2-yl)phenyl)-N-hydroxyacrylamide], for which the IC50 amounted to 7.9 nM. The value for `Cc1nc(-c2cccc(/C=C/C(=O)NO)c2)n(CCN2CCOCC2)c1Cc1ccccc1` [3-(3-(5-benzyl-4-methyl-1-(2-morpholinoethyl)-1H-imidazol-2-yl)phenyl)-N-hydroxyacrylamide] was 10 nM; that for `Cc1nc(-c2cccc(/C=C/C(=O)NO)c2)n(CCc2ccccc2)c1Cc1ccccc1` [3-(3-(5-benzyl-4-methyl-1-phenethyl-1H-imidazol-2-yl)phenyl)-N-hydroxyacrylamide] was 5 nM.

As for `CCN1CCC[C@@H](n2c(-c3cccc(/C=C/C(=O)NO)c3)nc3ccccc32)C1` [(R)-3-(3-(1-(1-ethylpiperidin-3-yl)-1H-benzo[d]imidazol-2-yl)phenyl)-N-hydroxyacrylamide], the IC50 amounted to 10 nM. `CCN1CCC[C@@H](n2c(-c3cccc(/C=C/C(=O)NO)c3)nc(C)c2C)C1` [(R)-3-(3-(1-(1-ethylpiperidin-3-yl)-4,5-dimethyl-1H-imidazol-2-yl)phenyl)-N-hydroxyacrylamide]: the concentration for half-maximal inhibition (IC50) is 12 nM. The value for `CCN1CCC[C@@H](n2c(-c3cccc(/C=C/C(=O)NO)c3)nc(C)c2-c2ccccc2)C1` [(R)-3-(3-(1-(1-ethylpiperidin-3-yl)-4-methyl-5-phenyl-1H-imidazol-2-yl)phenyl)-N-hydroxyacrylamide] was 7.9 nM. On to `CCN1CCC[C@@H](n2c(Cc3ccccc3)nc(C)c2-c2cccc(/C=C/C(=O)NO)c2)C1` [(R)-3-(3-(2-benzyl-1-(1-ethylpiperidin-3-yl)-4-methyl-1H-imidazol-5-yl)phenyl)-N-hydroxyacrylamide], for which the half-inhibitory concentration (IC50) was determined as 120 nM. As for `CCN1CCC[C@@H](n2c(-c3cccc(/C=C/C(=O)NO)c3)nc(Cc3ccccc3)c2C)C1` [(R)-3-(3-(4-benzyl-1-(1-ethylpiperidin-3-yl)-5-methyl-1H-imidazol-2-yl)phenyl)-N-hydroxyacrylamide], the IC50 is 10 nM. The value for `Cc1c(Cc2ccccc2)nc(-c2cccc(/C=C/C(=O)NO)c2)n1[C@@H]1CCCN(C)C1` [(R)-3-(3-(4-benzyl-5-methyl-1-(1-methylpiperidin-3-yl)-1H-imidazol-2-yl)phenyl)-N-hydroxyacrylamide] was 6.3 nM.

Take `Cc1nc(-c2cccc(/C=C/C(=O)NO)c2)n([C@@H]2CCCN(C(C)C)C2)c1-c1ccccc1` [(R)-N-hydroxy-3-(3-(1-(1-isopropylpiperidin-3-yl)-4-methyl-5-phenyl-1H-imidazol-2-yl)phenyl)acrylamide]: the IC50 is 6.3 nM. For the compound `Cc1c(-c2ccccc2)nc(-c2cccc(/C=C/C(=O)NO)c2)n1[C@@H]1CCCN(C(C)C)C1` [(R)-N-hydroxy-3-(3-(1-(1-isopropylpiperidin-3-yl)-5-methyl-4-phenyl-1H-imidazol-2-yl)phenyl)acrylamide], the IC50 is 5 nM.

With `CN1CCC[C@@H](n2c(-c3cccc(/C=C/C(=O)NO)c3)nc3ccccc32)C1` [(R)-N-hydroxy-3-(3-(1-(1-methylpiperidin-3-yl)-1H-benzo[d]imidazol-2-yl)phenyl)acrylamide], the IC50 was 10 nM. With `C[C@H](c1ccccc1)n1c(-c2cccc(/C=C/C(=O)NO)c2)nc2ccccc21` [(R)-N-hydroxy-3-(3-(1-(1-phenylethyl)-1H-benzo[d]imidazol-2-yl)phenyl)acrylamide] the figure was 25 nM; with `O=C(/C=C/c1cccc(-c2nc3ccccc3n2[C@@H]2CCCNC2)c1)NO` [(R)-N-hydroxy-3-(3-(1-(piperidin-3-yl)-1H-benzo[d]imidazol-2-yl)phenyl)acrylamide], 12 nM. The value for `Cc1nc(-c2cccc(/C=C/C(=O)NO)c2)n([C@@H]2CCCN(C)C2)c1-c1ccccc1` [(R)-N-hydroxy-3-(3-(4-methyl-1-(1-methylpiperidin-3-yl)-5-phenyl-1H-imidazol-2-yl)phenyl)acrylamide] was 10 nM. The value for `Cc1c(-c2ccccc2)nc(-c2cccc(/C=C/C(=O)NO)c2)n1[C@@H]1CCCN(C)C1` [(R)-N-hydroxy-3-(3-(5-methyl-1-(1-methylpiperidin-3-yl)-4-phenyl-1H-imidazol-2-yl)phenyl)acrylamide] was 5 nM.

For `CCN1CCC[C@H](n2c(-c3cccc(/C=C/C(=O)NO)c3)nc3ccccc32)C1` [(S)-3-(3-(1-(1-ethylpiperidin-3-yl)-1H-benzo[d]imidazol-2-yl)phenyl)-N-hydroxyacrylamide], the IC50 was 31 nM. The value for `O=C(/C=C/c1cccc(-c2nc3ccccc3n2CCN2CCCCC2)c1)NO` [N-hydroxy-3-(3-(1-(2-(piperidin-1-yl)ethyl)-1H-benzo[d]imidazol-2-yl)phenyl)acrylamide] was 10 nM; that for `O=C(/C=C/c1cccc(-c2nc3ccccc3n2CCN2CCCC2)c1)NO` [N-hydroxy-3-(3-(1-(2-(pyrrolidin-1-yl)ethyl)-1H-benzo[d]imidazol-2-yl)phenyl)acrylamide] was 16 nM; that for `O=C(/C=C/c1cccc(-c2nc3ccccc3n2CCN2CCOCC2)c1)NO` [N-hydroxy-3-(3-(1-(2-morpholinoethyl)-1H-benzo[d]imidazol-2-yl)phenyl)acrylamide] was 50 nM.

Consider `O=C(/C=C/c1cccc(-c2nc3ccccc3n2CCCc2ccccc2)c1)NO` [N-hydroxy-3-(3-(1-(3-phenylpropyl)-1H-benzo[d]imidazol-2-yl)phenyl)acrylamide], for which the IC50 came out at 12 nM. The value for `COc1ccc(-n2c(-c3cccc(/C=C/C(=O)NO)c3)nc3ccccc32)cc1` [N-hydroxy-3-(3-(1-(4-methoxyphenyl)-1H-benzo[d]imidazol-2-yl)phenyl)acrylamide] was 40 nM. As for `O=C(/C=C/c1cccc(-c2nc3ccccc3n2CC2CCNCC2)c1)NO` [N-hydroxy-3-(3-(1-(piperidin-4-ylmethyl)-1H-benzo[d]imidazol-2-yl)phenyl)acrylamide], the IC50 came to 160 nM. As for `CC(C)n1c(-c2cccc(/C=C/C(=O)NO)c2)nc2ccccc21` [N-hydroxy-3-(3-(1-isopropyl-1H-benzo[d]imidazol-2-yl)phenyl)acrylamide], the IC50 came out at 79 nM. Turning to `Cn1c(-c2cccc(/C=C/C(=O)NO)c2)nc2ccccc21` [N-hydroxy-3-(3-(1-methyl-1H-benzo[d]imidazol-2-yl)phenyl)acrylamide], the IC50 was found to be 120 nM.

For the compound `O=C(/C=C/c1cccc(-c2nc3ccccc3n2CCc2ccccc2)c1)NO` [N-hydroxy-3-(3-(1-phenethyl-1H-benzo[d]imidazol-2-yl)phenyl)acrylamide], the IC50 was found to be 7.9 nM.

On to `O=C(/C=C/c1cccc(-c2nc3ccccc3n2-c2ccccc2)c1)NO` [N-hydroxy-3-(3-(1-phenyl-1H-benzo[d]imidazol-2-yl)phenyl)acrylamide], for which the IC50 stood at 63 nM.

Turning to `Cc1nc(-c2cccc(/C=C/C(=O)NO)c2)n(CCN2CCOCC2)c1-c1ccccc1` [N-hydroxy-3-(3-(4-methyl-1-(2-morpholinoethyl)-5-phenyl-1H-imidazol-2-yl)phenyl)acrylamide], the IC50 turned out to be 31 nM.

Turning to `Cc1nc(-c2cccc(/C=C/C(=O)NO)c2)n(CCc2ccccc2)c1-c1ccccc1` [N-hydroxy-3-(3-(4-methyl-1-phenethyl-5-phenyl-1H-imidazol-2-yl)phenyl)acrylamide], the IC50 amounted to 7.9 nM. On to `Cc1c(-c2ccccc2)nc(-c2cccc(/C=C/C(=O)NO)c2)n1CCN1CCOCC1` [N-hydroxy-3-(3-(5-methyl-1-(2-morpholinoethyl)-4-phenyl-1H-imidazol-2-yl)phenyl)acrylamide], for which the IC50 was 10 nM.

Values taken from BindingDB's records for doi:10.1016/j.bmcl.2010.03.092 (Takeda California, 2010).
